Results reported in US9757393B2 (priority 2015, dated 2017).

What was measured:
[1] = tested on: phospho-Akt (Ser 473)/total Akt; assay: Western blotting of phospho-Akt (Ser 473)/total Akt; type: in vivo, C57BL/6J mice; conditions: HFD-fed mice, vs HF mice
Procedure: (§1) Experimental Animals: the experiments are conducted under the guidelines of the Institutional Animal Care and Use Committee of Central Taiwan University of Science and Technology. As previously described, four-week-old male C57BL/6J mice (n=63) is purchased from the National Laboratory Animal Breeding and Research Center, Ministry of Science and Technology. After 1-week of acclimatization, mice are designed to initiate the study, and the study lasts for 12 weeks. […] The CON group and high-fat control (HF) group are given with vehicle only. The low-fat diet consisted of fat 10%, whereas the high-fat diet (HFD) consisted of fat 45% (of total energy, % kcal). The compositions of the experimental diets are shown as described. At the end of the study, food is derived from the animals (from 10 p.m. to 10 a.m.). On the next day, the mice are sacrificed, and blood and tissue are collected for analysis. Livers, skeletal muscles, and white adipose tissues (WATs) (including epididymal, mesenteric and retroperitoneal WAT) are excised and weighed, and then immediately stored in a freezer at −80° C. Heparin (30 units/mL) (Sigma) is added to blood samples. Plasma samples are collected by centrifugation at 1600 g for 15 min at 4° C. within 30 min, and plasma is obtained for insulin and leptin level analysis.
Protein extractions and immunoblots for the determination of membrane GLUT4, phospho-AMPK (Thr172), and phospho-Akt (Ser 473) proteins are carried out on frozen skeletal muscle and liver tissue from mice, which follows a previous paper. […] The protein contents of membrane GLUT4, phospho-AMPK, phospho-Akt, total AMPK, and total Akt are detected by western blotting. Western blotting has been determined as described elsewhere. Subsequently, antibodies are detected using horseradish peroxidase linked to a goat anti-IgG rabbit secondary antibody and visualized using an ECL system. […] The density blotting is analyzed using Alpha Easy FC software (Alpha Innotech Corp., Randburg, South Africa). […]

[2] = tested on: apo A-I mRNA; assay: Semiquantitative RT-PCR, liver tissue: apo A-I; type: in vivo, C57BL/6J mice; conditions: HFD-fed mice
Procedure: as §1
(§2) The experiment is performed as in a previously described protocol. Total RNA from the liver tissue is isolated with a Trizol reagent (Molecular Research Center, Inc., Cincinnati, Ohio, USA) according to the manufacturer's directions. Total RNA (1 μg) is reverse transcribed to cDNA with 5 μL of Moloney murine leukemia virus reverse transcriptase (Epicenter, Madison, Wis., USA) as a previously described protocol. […] The relative density of the band is evaluated using AlphaDigiDoc 1201 software (Alpha Innotech Co., San Leandro, Calif., USA). All of the measured PCR products are normalized to the amount of cDNA of GAPDH in each sample.

[3] = tested on: HFD-fed C57BL/6J mice; assay: Histopathology examination of epididymal WAT and liver tissue; type: in vivo; conditions: for ballooning degeneration of hepatocyte: liver tissue; for average area of adipocytes (epididymal WAT): oral gavage daily for 4 weeks
Procedure: as §1
A portion of the collected epididymal WAT and liver tissue is fixed with formalin (200 g/kg) neutral buffered solution and embedded in paraffin. Sections (8 μm) are cut and stained with hematoxylin and eosin. A microscope (Leica, DM2500) and Leica Digital camera (DFC-425-C) are used for microscopic examination and images taken, respectively.

[4] = tested on: G6 Pase mRNA; assay: Semiquantitative RT-PCR, liver tissue: G6 Pase; type: in vivo, C57BL/6J mice; conditions: HFD-fed mice
Procedure: as §1, §2

[5] = tested on: membrane GLUT4; assay: Western blotting of membrane GLUT4 in skeletal muscle; type: in vivo, C57BL/6J mice; conditions: HFD-fed mice; for muscular membrane GLUT4 protein contents: vs HF group
Procedure: as §1
(§3) Protein extractions and immunoblots for the determination of membrane GLUT4, phospho-AMPK (Thr172), and phospho-Akt (Ser 473) proteins are carried out on frozen skeletal muscle and liver tissue from mice, which follows a previous paper. Additionally, membrane GLUT4 is carried out on frozen skeletal muscle from mice, and the total membrane fractions are collected with buffer and centrifuged as a previously described. The protein contents of membrane GLUT4, phospho-AMPK, phospho-Akt, total AMPK, and total Akt are detected by western blotting. Western blotting has been determined as described elsewhere. Subsequently, antibodies are detected using horseradish peroxidase linked to a goat anti-IgG rabbit secondary antibody and visualized using an ECL system. Membrane GLUT4, structural proteins GAPDH and β-actin are purchased from Santa Cruz Biotechnology (Santa Cruz, Calif., USA); phospho-AMPK was obtained from Abcam Inc. (Cambridge, Mass., USA); phospho-Akt, total AMPK, and total Akt are from Cell Signaling Technology, Inc. (Danver Mass., USA); the BCA protein assay kit is from Thermo Scientific (Rockford, Ill., USA); and the ECL reagent kit is from GE Healthcare BioSciences (Buckinghamshire, UK). The secondary antibody antirabbit is from Jackson ImmunoResearch Laboratories, Inc. (West Grove, Pa., USA). The density blotting is analyzed using Alpha Easy FC software (Alpha Innotech Corp., Randburg, South Africa). Structural proteins GAPDH and β-actin are obtained by stripping the nitrocellulose membrane proteins of liver and skeletal muscle, respectively.

[6] = tested on: DGAT2 mRNA; assay: Semiquantitative RT-PCR, liver tissue: DGAT2; type: in vivo, C57BL/6J mice; conditions: HFD-fed mice
Procedure: as §1, §2

[7] = tested on: adiponectin mRNA; assay: Semiquantitative RT-PCR, liver tissue: adiponectin; type: in vivo, C57BL/6J mice; conditions: HFD-fed mice, 40 mg/kg/day
Procedure: as §1, with “Heparin (30 units/mL) (Sigma) is added to blood samples. Plasma samples are collected by centrifugation at 1600 g for 15 min at 4° C. within 30 min, and plasma is obtained for insulin and leptin level analysis.” left out
The experiment is performed as in a previously described protocol. […] The relative density of the band is evaluated using AlphaDigiDoc 1201 software (Alpha Innotech Co., San Leandro, Calif., USA). All of the measured PCR products are normalized to the amount of cDNA of GAPDH in each sample.

[8] = tested on: SREBP1c mRNA; assay: Semiquantitative RT-PCR, liver tissue: SREBP1c; type: in vivo, C57BL/6J mice; conditions: HFD-fed mice
Procedure: as §1, §2

[9] = tested on: HFD-fed C57BL/6J mice; assay: Hepatic lipid in HFD-fed mice; type: in vivo; conditions: oral gavage daily for 4 weeks
Procedure: as §1
Blood Lipid and Hepatic Lipid. Hepatic lipids are extracted as previously described. Liver sample (0.375 g) is homogenized with 1 mL of distilled water for 5 min for the hepatic lipid extraction and analyzed using a triglycerides kit as used for serum lipids.

[10] = tested on: phospho-AMPK (Thr172); assay: Western blotting of phospho-AMPK (Thr172) in liver tissue and skeletal muscle; type: in vivo, C57BL/6J mice; conditions: HFD-fed mice
Procedure: as §1, §3

CC(C)[C@@H](C)C=C[C@@H](C)[C@H]1CC[C@H]2C3=CCC4C[C@@H](O)CC[C@]4(C)C3=CC[C@]12C (stereo partly drawn) [ergostatrien-3β-ol, ergosta-7,9(11),22-trien-3β-ol]
levels of phospho-Akt/total Akt ([1]; 10 mg/kg/day): higher | levels of phospho-Akt/total Akt ([1]; 20 mg/kg/day): higher | levels of phospho-Akt/total Akt ([1]; 40 mg/kg/day): higher | mRNA levels of apolipoprotein A-I (apo A-I) ([2]; 10 mg/kg/day): increased | mRNA levels of apolipoprotein A-I (apo A-I) ([2]; 20 mg/kg/day): increased | mRNA levels of apolipoprotein A-I (apo A-I) ([2]; 40 mg/kg/day): increased | ballooning degeneration of hepatocyte ([3]; 10 mg/kg/day): decreases | ballooning degeneration of hepatocyte ([3]; 20 mg/kg/day): decreases | ballooning degeneration of hepatocyte ([3]; 40 mg/kg/day): decreases | average area of adipocytes (epididymal WAT) ([3]; 10 mg/kg/day): 4204.0±131.5 μm2 | average area of adipocytes (epididymal WAT) ([3]; 20 mg/kg/day): 3535.7±340.2 μm2 | average area of adipocytes (epididymal WAT) ([3]; 40 mg/kg/day): 3458.9±30.7 μm2 | mRNA level of G6 Pase ([4]; 10 mg/kg/day): decreased | mRNA level of G6 Pase ([4]; 20 mg/kg/day): decreased | mRNA level of G6 Pase ([4]; 40 mg/kg/day): decreased | enhancement of muscular membrane GLUT4 protein ([5]; 40 mg/kg/day): approximately 2.7 fold | muscular membrane GLUT4 protein contents ([5]; 10 mg/kg/day): increased | muscular membrane GLUT4 protein contents ([5]; 20 mg/kg/day): increased | muscular membrane GLUT4 protein contents ([5]; 40 mg/kg/day): increased | mRNA level of DGAT2 ([6]; 10 mg/kg/day): decreased | mRNA level of DGAT2 ([6]; 20 mg/kg/day): decreased | mRNA level of DGAT2 ([6]; 40 mg/kg/day): decreased | mRNA level of adiponectin [7]: increase | mRNA level of SREBP1c ([8]; 10 mg/kg/day): decreased | mRNA level of SREBP1c ([8]; 20 mg/kg/day): decreased | mRNA level of SREBP1c ([8]; 40 mg/kg/day): decreased | Liver Lipids total lipid ([9]; 10 mg/kg/day): 72.4 ± 3.7 mg/g | Liver Lipids triacylglycerol ([9]; 10 mg/kg/day): 57.3 ± 5.5 µmol/g | Liver Lipids total lipid ([9]; 20 mg/kg/day): 68.0 ± 4.5 mg/g | Liver Lipids triacylglycerol ([9]; 20 mg/kg/day): 44.5 ± 4.7 µmol/g | Liver Lipids total lipid ([9]; 40 mg/kg/day): 65.4 ± 4.2 mg/g | Liver Lipids triacylglycerol ([9]; 40 mg/kg/day): 43.7 ± 6.6 µmol/g | protein contents of phospho-AMPK ([10]; liver tissue, 10 mg/kg/day): significantly increased | protein contents of phospho-AMPK ([10]; liver tissue, 20 mg/kg/day): significantly increased | protein contents of phospho-AMPK ([10]; liver tissue, 40 mg/kg/day): significantly increased | protein contents of phospho-AMPK ([10]; skeletal muscle, 10 mg/kg/day): significantly increased | protein contents of phospho-AMPK ([10]; skeletal muscle, 20 mg/kg/day): significantly increased | protein contents of phospho-AMPK ([10]; skeletal muscle, 40 mg/kg/day): significantly increased
